“And” between values parts separate entries of the source, which are not always exact repeats. Equal values may be shown once.

Test system in one data set: not given
Experiment: not given
Conditions: not given
The term melting point denotes the temperature, or range, at which the solid turns liquid. `N#Cc1ccc2c(c1)ncn2-c1cccc(N2CCCCC2)c1` gave a melting point of 106 to 108 °C.
Same read-out and setting: the result for `CN1CCN(c2cccc(-n3cnc4cc(C#N)ccc43)c2)CC1` reads 177 to 179 °C; that for `CN1CCCC(c2cccc(-n3cnc4cc(C#N)ccc43)c2)C1.Cl` (stereo not drawn), 158 to 160 °C; that for `ON=Cc1ccc2c(c1)ncn2-c1cccc(N2CCCCC2)c1`, 213 to 214 °C.
In turn, `ON=Cc1ccc2c(c1)ncn2-c1cccc(N2CCCC2)c1` showed a melting point of 242 to 244 °C.
The compound `CN1CCN(c2cccc(-n3cnc4cc(C=NO)ccc43)c2)CC1` returned a melting point of 224 to 227 °C.
Compound `CC(C)ON=Cc1ccc2c(c1)ncn2-c1cccc(N2CCCCC2)c1` returned a melting point of 127 to 128 °C.
Same read-out and setting: the result for `CON=Cc1ccc2c(c1)ncn2-c1cccc(N2CCCCC2)c1` reads 107 to 108 °C; that for `CC(=O)c1ccc2c(c1)ncn2-c1cccc(N2CCN(C(C)=NO)CC2)c1`, 240 to 241 °C.
Same read-out and setting: the result for `CCON=C(C)c1ccc2c(c1)ncn2-c1cccc(N2CCN(C)CC2)c1.Cl` reads 62 to 63 °C; that for `CCON=C(C)c1ccc2c(c1)ncn2-c1cccc(N2CCCC2)c1`, 118 to 120 °C.
In turn, `CCON=C(C)c1ccc2c(c1)ncn2-c1cccc(N2CCCCC2)c1` gave a melting point of 88 to 89 °C.
Same read-out and setting: under `CC(=NOC(C)C)c1ccc2c(c1)ncn2-c1cccc(C2CCCN(C)C2)c1.Cl` (stereo not drawn) stands 48 to 55 °C; under `CC(=NOC(C)C)c1ccc2c(c1)ncn2-c1cccc(N2CCN(CCO)CC2)c1.Cl`, 165 to 169 °C; under `CC(=O)c1ccc2c(c1)ncn2-c1cccc(N2CCN(C(C)=NOC(C)C)CC2)c1.Cl`, 160 to 163 °C.
Still for that read-out and setting: the result for `CN1CCN(c2cccc(-n3cnc4cc(-c5ccoc5)ccc43)c2)CC1` reads 129 to 130 °C; that for `CN1CCCC(c2cccc(-n3cnc4cc(-c5ccoc5)ccc43)c2)C1` (stereo not drawn), 96 to 97 °C; that for `CN1CCN(c2cccc(-n3cnc4cc(-c5ccccc5)ccc43)c2)CC1`, 131 to 132 °C.
Same read-out and setting: under `CN1CCCC(c2cccc(-n3cnc4cc(-c5ccccc5)ccc43)c2)C1` (stereo not drawn) stands 42 to 44 °C; under `CN1CCCC(c2cccc(-n3cnc4cc(-c5nc(C6CC6)no5)ccc43)c2)C1.Cl` (stereo not drawn), 184 to 190 °C; under `CN1CCCC(c2cccc(-n3cnc4cc(C(C)(C)C)ccc43)c2)C1.Cl` (stereo not drawn), 200 °C.
The compound `CCOC(=O)c1ccc2c(c1)ncn2-c1cccc(N2CCN(C)CC2)c1` showed a melting point of 86 to 87 °C.
`CCOC(=O)c1ccc2c(c1)ncn2-c1cccc(N2CCN(CCO)CC2)c1.Cl` gave a melting point of 233 to 236 °C.
Take `CCOC(=O)c1ccc2c(c1)ncn2-c1cccc(N2CCN(C(C)=O)CC2)c1`: the melting point fell in the range of 155 to 156 °C.
On to `CCOC(=O)CN1CCN(c2cccc(-n3cnc4cc(C(=O)OCC)ccc43)c2)CC1.Cl`, for which the melting point was in the range of 196 to 200 °C.
With `CCOC(=O)C=Cc1ccc2c(c1)ncn2-c1cccc(N2CCCCC2)c1`, the melting point fell in the range of 85 to 87 °C.
The same measure, in the same setting: under `CCOC(=O)C=Cc1ccc2c(c1)ncn2-c1cccc(N2CCN(C)CC2)c1` stands 133 to 134 °C.
On to `COC(=O)C=Cc1ccc2c(c1)ncn2-c1cccc(N2CCN(C)CC2)c1`, for which the melting point was in the range of 138 to 140 °C.
Still for that read-out and setting: under `COC(=O)c1ccc2c(c1)ncn2-c1cccc(C2CN(C(C)=O)CCN2)c1` (stereo not drawn) stands 189 to 191 °C; under `COC(=O)c1ccc2c(c1)ncn2-c1cccc(N2CCN(C)CC2)c1`, 119 to 121 °C; under `CC(C)OC(=O)c1ccc2c(c1)ncn2-c1cccc(N2CCCCC2)c1`, 160 to 161 °C.
Turning to `CCCOC(=O)c1ccc2c(c1)ncn2-c1cccc(N2CCCC2)c1`, the melting point fell in the range of 170 to 172 °C.
Turning to `CC(C)OC(=O)c1ccc2c(c1)ncn2-c1cccc(N2CCN(C)CC2)c1`, the melting point fell in the range of 110 to 111 °C.
Still for that read-out and setting: the result for `CN1CCCC(c2cccc(-n3cnc4cc(C(=O)OCC5CC5)ccc43)c2)C1` (stereo not drawn) reads 111 to 113 °C; that for `CCOC(=O)Cc1ccc2c(c1)ncn2-c1cccc(N2CCN(C)CC2)c1.Cl`, 180 to 182 °C; that for `CC(=O)c1ccc2c(c1)ncn2-c1cccc(C(=NOC(C)C)OC2CCN(C)CC2)c1`, 106 to 107 °C.
Compound `CC(=O)c1ccc2c(c1)ncn2-c1cccc(C(=NOC(C)C)OC2CCCN(C)C2)c1` (stereo not drawn) showed a melting point of 83 to 84 °C.
On the same count and under the same terms, under `CCOC(=O)CON=C(C)c1ccc2c(c1)ncn2-c1cccc(C2CCCN(C)C2)c1.Cl` (stereo not drawn) stands 73 to 75 °C; under `COC(=O)CON=C(C)c1ccc2c(c1)ncn2-c1cccc(C2CCCN(C)C2)c1` (stereo not drawn), 104 to 106 °C.
Same read-out and setting: under `COC(=O)C(C)(C)ON=C(C)c1ccc2c(c1)ncn2-c1cccc(C2CCCN(C)C2)c1` (stereo not drawn) stands 113 to 116 °C and 113 to 115 °C; under `CCOC(CN1CCN(c2cccc(-n3cnc4cc(C(C)=O)ccc43)c2)CC1)=NO`, 154 to 156 °C.
`COC(=O)C(C)(C)ON=C(C)N1CCN(c2cccc(-n3cnc4cc(C(C)=O)ccc43)c2)CC1` gave a melting point of 119 to 120 °C.
For `COC(=O)CON=C(C)N1CCN(c2cccc(-n3cnc4cc(C(C)=O)ccc43)c2)CC1`, the melting point lay within 137 to 139 °C.
In turn, `CCCON=C(CN1CCN(c2cccc(-n3cnc4cc(C(C)=O)ccc43)c2)CC1)OC` showed a melting point of 120 to 122 °C.
Same read-out and setting: under `CCOC(=O)C(=CN1CCN(c2cccc(-n3cnc4cc(C(C)=O)ccc43)c2)CC1)C(=NOC(C)C)OCC` stands 128 to 129 °C; under `COC(=O)C(C)(C)ON=Cc1ccc2c(c1)ncn2-c1cccc(N2CCN(C)CC2)c1.Cl`, 199 to 201 °C; under `COC(=O)c1cccc(-n2cnc3cc(-c4ccno4)ccc32)c1`, 190 to 191 °C.
Consider `CCOC(=O)c1cccc(-n2cnc3cc(-c4ccccc4)ccc32)c1`, for which the melting point was in the range of 122 to 123 °C.
Take `Cl.O=C(OCc1cccnc1)c1cccc(-n2cnc3cc(-c4ccccc4)ccc32)c1`: the melting point was 195 to 197 °C.
Still for that read-out and setting: under `CN1CCCC(OC(=O)c2cccc(-n3cnc4cc(-c5ccccc5)ccc43)c2)C1.Cl` (stereo not drawn) stands 180 to 191 °C; under `CN1CCC(OC(=O)c2cccc(-n3cnc4cc(-c5ccccc5)ccc43)c2)CC1.Cl`, 187 to 188 °C.
Turning to `CCOC(=O)c1cccc(-n2cnc3cc(-c4ccoc4)ccc32)c1`, the melting point was 87 to 89 °C.
The same measure, in the same setting: under `CCOC(=O)c1cccc(-n2cnc3cc(C4CCOC4)ccc32)c1.Cl` (stereo not drawn) stands 168 to 171 °C.
Turning to `CCOC(=O)CN1CCN(c2cccc(-n3cnc4cc(-c5ccoc5)ccc43)c2)CC1`, the melting point is 110 to 112 °C.
For `CC(C)(C)OC(=O)N1CCN(c2cccc(-n3cnc4cc(-c5ccoc5)ccc43)c2)CC1`, the melting point lay in the range of 162 to 164 °C.
The same measure, in the same setting: under `COC(=O)CN1CCN(c2cccc(-n3cnc4cc(-c5ccoc5)ccc43)c2)CC1` stands 124 to 125 °C; under `COC(=O)C=CN1CCN(c2cccc(-n3cnc4cc(-c5ccoc5)ccc43)c2)CC1`, 131 to 133 °C; under `N#Cc1ccc2c(c1)ncn2-c1cccc(N2CCCC2)c1` [compound 3a2, 5-Cyano-1-(3-(1-pyrrolidinyl)phenyl)benzimidazole], 171 to 172 °C.
Still for that read-out and setting: the result for `CN1CCCC(c2cccc(-n3cnc4cc(C=NO)ccc43)c2)C1` (stereo not drawn) [compound 3b4, 5-Formyl-1-(3-(1-methyl-3-piperidinyl)phenyl)benzimidazole oxime] reads 214 to 218 °C.
Still for that read-out and setting: the result for `CCON=C(C)c1ccc2c(c1)ncn2-c1cccc(C2CCCN(C)C2)c1.Cl` (stereo not drawn) [compound 3f7, 5-acetyl-1-(3-(1-methylpiperidin-3-yl)phenyl)benzimidazole O-ethyl oxime hydrochloride] reads 112 to 114 °C; that for `CC(=O)c1ccc2c(c1)ncn2-c1cccc(C(=NOC(C)C)OCc2ccccn2)c1` [compound 5a3, 5-Acetyl-1-(3-(2-picolyloxycarbonyl)phenyl)benzimidazole O-i-propyl oxime], 104 to 106 °C.
Compound `CCON=C(CC1CCN(c2cccc(-n3cnc4cc(C(C)=O)ccc43)c2)CC1)OCC` [compound 5d2, 5-Acetyl-1-(3-(4-(ethoxycarbonylmethyl)piperidin-1-yl)phenyl)benzimidazole O-ethyl oxime] came in with a melting point of 119 to 120 °C.

The next data set has as its target benzodiazepine receptor sites (GABAA receptor complex). The experiment in a line: In vitro inhibition of 3H-flunitrazepam (3H-FNM) binding, cerebral cortex membranes. The note with it: inhibition of specific binding of 3H-FNM (1 nM), rat cerebral cortex membranes, 40 min at 2° C. How it is done:
The affinity of various potential ligands for the benzodiazepine receptor sites can thus be evaluated by estimating the ability of test compounds to displace ^3H-flunitrazepam.
Tissue Preparation: Preparations are performed at 0-4° C. unless otherwise indicated.
Cerebral cortex from male Wistar rats (150-200 g) is homogenized for 5-10 sec in 20 ml Tris-HCl (30 mM, pH 7.4) using an Ultra-Turrax homogenizer. The suspension is centrifuged at 27,000×g for 15 min, and the pellet is washed three times with buffer (centrifuged at 27,000×g for 10 min). The washed pellet is homogenized in 20 ml of buffer and incubated on a water bath (37° C.) for 30 min to remove endogenous GABA and then centrifuged for 10 min at 27,000×g. The pellet is then homogenized in buffer and centrifuged for 10 min at 27,000×g. The final pellet is resuspended in 30 ml buffer and the preparation is frozen and stored at −20° C.
Assay: The membrane preparation is thawed and centrifuged at 2° C. for 10 min at 27,000×g. The pellet is washed twice with 20 ml 50 mM Tris-citrate, pH 7.1 using an Ultra-Turrax homogenizer and centrifuged for 10 min at 27,000×g. The final pellet is resuspended in 50 mM Tris-citrate, pH 7.1 (500 ml buffer per g of original tissue), and then used for binding assays. Aliquots of 0.5 ml tissue are added to 25 μl of test solution and 25 μl of ^3H-FNM (1 nM, final concentration), mixed and incubated for 40 min at 2° C. Non-specific binding is determined using clonazepam (1 μM, final concentration). After incubation the samples are added 5 ml of ice-cold buffer and poured directly onto Whatman GF/C glass fibre filters under suction and immediately washed with 5 ml ice-cold buffer. The amount of radioactivity on the filters is determined by conventional liquid scintillation counting. Specific binding is total binding minus non-specific binding.
The test value is calculated as the IC50 (the concentration (nM) of the test substance which inhibits the specific binding of ^3H—FNM by 50%).
A word on the IC50: it is the concentration needed to halve the response being measured. As for `N#Cc1ccc2c(c1)ncn2-c1cccc(N2CCCC2)c1` [compound 3a2, 5-Cyano-1-(3-(1-pyrrolidinyl)phenyl)benzimidazole], the IC50 is 41 nM.
With `CN1CCCC(c2cccc(-n3cnc4cc(C=NO)ccc43)c2)C1` (stereo not drawn) [compound 3b4, 5-Formyl-1-(3-(1-methyl-3-piperidinyl)phenyl)benzimidazole oxime], the IC50 was 4 nM.
Same read-out and setting: under `CCON=C(C)c1ccc2c(c1)ncn2-c1cccc(C2CCCN(C)C2)c1.Cl` (stereo not drawn) [compound 3f7, 5-acetyl-1-(3-(1-methylpiperidin-3-yl)phenyl)benzimidazole O-ethyl oxime hydrochloride] stands 18 nM; under `CN1CCCC(c2cccc(-n3cnc4cc(C(=O)OCc5cccnc5)ccc43)c2)C1` (stereo not drawn) [compound 4h, 5-(3-Picolyloxycarbonyl)-1-(3-(1-methylpiperidin-3-yl)phenyl)benzimidazole], 80 nM.

These data come from US6710044B2, “Technical field” (NeuroSearch A/S, priority 1996, dated 2004).
